Measurements: patent US10513520B2, “Sulfamide and sulfamate inhibitors of hHint1” (Regents of the University of Minnesota, priority 2016, dated 2019)
Counter-ions that a name gives are not always drawn. Like-named read-outs stand apart in the source and are kept apart here.

Assays:
hHint1 [1] = target: T1, hHint1 (Homo sapiens (Human), UniProt P49773); experiment: Isothermal titration calorimetry (ITC) of hHint1-ligand complexes; assay type: binding; details: for Kd / ΔG / ΔH / −TΔS: ITC, hHint1; for Kd: 20° C.
T1 sequence (P49773 whole entry): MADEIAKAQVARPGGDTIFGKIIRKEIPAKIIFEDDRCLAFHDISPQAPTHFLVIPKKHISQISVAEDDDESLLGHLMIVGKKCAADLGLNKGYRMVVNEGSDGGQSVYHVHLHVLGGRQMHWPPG
Experimental: Isothermal Titration Calorimetry (ITC) ITC experiments were conducted on a MicroCal Auto-ITC200 system (GE Healthcare life sciences). […] To determine the dissociation constant of stock concentration (300-400 uM) of inhibitors was titrated with 15-20 uM of Hint1. Twenty injections of ligand were injected (injection volume 2 ul) into the protein cell. […] The in vitro binding affinity of the new series was evaluated of analogues for hHint1 using isothermal calorimetry (ITC).

mice [2] = details: icv, cited from earlier work
[3] = Solubility (aqueous buffers, water, DMSO); assay type: physicochemical
Description: Replacement of the 5′-oxygen atom in the acyl-sulfamate with a nitrogen affords an acyl-sulfamide backbone, which increases the pKa of the backbone NH by 2-3 units.

hHint1 [4] = target: T1, hHint1; experiment: Fluorescence assay of hHint1 activity at fixed saturating substrate concentration; assay type: biochemical
Description: The effect of a non-hydrolyzable nucleotide analog Bio-AMS was compared with compound 3 on the activity of hHint1 using a fluorescence assay described previously.^3
Isothermal titration calorimetry (ITC) was used to investigate the nature of non-covalent interactions on the inhibitory activity of Bio-AMS on hHint1.

ICR mice [5] = experiment: Spared nerve injury (SNI), von Frey mechanical threshold testing; assay type: in vivo, mouse; details: for SNI-induced mechanical hypersensitivity, injection on day 7 following injury: 1 nmol intrathecally 7 days post spared nerve injury; for SNI-induced mechanical hypersensitivity, pretreatment: 1 nmol intrathecally prior to spared nerve injury
Experimental: Male and Female ICR mice (25-30 g) were given 1 nmol of TpGc prior to (Panel A) or 7 days post (Panel B) spared nerve injury. A separate cohort (Panel C) of male ICR mice (25-50 g) were given 1 nmol of compound 7 intrathecally both prior to and 7 days post spared nerve injury. All cohorts were evaluated with Von Frey mechanical threshold testing.
Male and female ICR mice were given 1 nmol of HINT1 inhibitor TpGc or 7 intrathecally either immediately prior to or 7 days following induction of neuropathic pain via spared nerve injury (Decosterd, 2000). Briefly, an incision is made into the leg of the mouse directly above the branching of the sciatic nerve. The peroneal and tibial branches of the nerve are ligated and cut while the sural branch is left intact, leading to a localized hypersensitivity on the lateral portion of the hindpaw. Von Frey mechanical testing was performed prior to surgery and for up to 7 days post surgery.

ICR mice [6] = experiment: Development of morphine analgesic tolerance, tail flick assay; assay type: in vivo, mouse; details: HINT1 inhibitor+morphine intrathecally for 3 days, morphine challenge on Day 4
ICR mice [7] = experiment: Inhibition of morphine inhibition of NMDA-evoked scratching and biting behavior; assay type: in vivo, mouse; details: male mice, intrathecal pretreatment before morphine and NMDA
Experimental: Male ICR mice (25-30) were given TpGc (10 nmol) 10 minutes before morphine sulfate (10 nmol) intrathecally. After a period of 10 minutes, NMDA was injected intrathecally and scratching and biting behaviors were quantified. The MPE % was calculated using morphine alone as the positive control.
Male mice were given intrathecal treatment of either morphine or morphine+a HINT1 inhibitor. They were then given an intrathecal injection of NMDA and scratching and biting behaviors were counted for 1 minute. […]

hHint1 [8] = target: T1, hHint1; details: ITC, cited from earlier work
mice [9] = details: single icv administration, CCI mice, cited from earlier work
[10] = data adapted from Garzon et al.

Kd (hHint1 [1]) [nM] | stock solutions easily prepared in aqueous buffers [3] | ΔG (hHint1 [1]) [kcal/mol] | ΔH (hHint1 [1]) [kcal/mol] | −TΔS (hHint1 [1]) [kcal/mol] | Compound | SNI-induced mechanical hypersensitivity, injection on day 7 following injury (ICR mice [5]) | SNI-induced mechanical hypersensitivity, pretreatment (ICR mice [5]) | morphine potency and efficacy after tolerance development protocol (ICR mice [6]) | ED50, attenuation of morphine's inhibition of NMDA-evoked behavior (ICR mice [7]) [nM] | other results
810 ± 110 |  |  |  |  | Nc1nc2c(ncn2C2OC(COS(=O)(=O)NC(=O)CCc3c[nH]c4ccccc34)C(O)C2O)c(=O)[nH]1 (single isomer, unassigned) [Compound 4, 5′-O—[N-(3-Indolepropionic acid)sulfamoyl] Guanosine Triethylammonium Salt] |  |  |  |  | 
 |  |  |  |  | Nc1nc2c(ncn2[C@@H]2O[C@H](COC(=O)NCCc3c[nH]c4ccccc34)[C@@H](O)[C@H]2O)c(=O)[nH]1 [Compound 3, guanosine-5′-tryptamine carbamate] | transient reversal of mechanical hypersensitivity | sustained attenuation of SNI-induced mechanical hypersensitivity | equivalent potency and efficacy compared to the saline pre-treatment | 0.61 | effect on development of morphine tolerance (mice [2]; listed as TpGc): reduced the development of acute tolerance; effect on morphine analgesia / antinociception (mice [2]; listed as TpGc): potentiated morphine-evoked antinociception; effect on development of morphine tolerance (mice [2]): rescues and prevents the development of NMDAR mediated morphine tolerance; effect on morphine analgesia / antinociception (mice [2]): enhances morphine analgesia; aqueous solubility ([3]; in words): poor solubility; IC50 (hHint1 [4]): 25500 ± 6000 nM; ΔG (hHint1 [8]; [10]): -4.1 ± 2.0 kcal/mol; ΔH (hHint1 [8]; [10]): -13.54 ± 1.00 kcal/mol; −TΔS (hHint1 [8]; [10]): 9.54 ± 4.17 kcal/mol; Kd (hHint1 [8]; data adapted from previously published result by Garzon et al.): 3650 ± 1000 nM; mechanical allodynia (mice [9]): reduce mechanical allodynia in animals for several days; mechanical allodynia (mice [9]; listed as TpGc): significant attenuation of mechanical allodynia that persisted for several days
 | up to 5 mM | -8.46 ± 0.4 | -16.51 ± 0.17 | 8.05 ± 0.88 | Nc1nc2c(ncn2[C@@H]2O[C@H](COS(=O)(=O)NC(=O)CCc3c[nH]c4ccccc34)C(O)[C@@H]2O)c(=O)[nH]1 (stereo partly drawn) [Compound 4, 5′-O—[N-(3-Indolepropionic acid)sulfamoyl] Guanosine Triethylammonium Salt] |  |  |  |  | fold increase in binding affinity over compound 3 (hHint1 [1]; compared with compound 3): 4.5 fold
2900 ± 250 | up to 5 mM | -5.81 ± 1.0 | -13.59 ± 1.12 | 7.71 ± 0.27 | CCCC(=O)NS(=O)(=O)OC[C@H]1O[C@@H](n2cnc3c(=O)[nH]c(N)nc32)C(O)C1O (stereo partly drawn) [Compound 5] |  |  |  |  | decrease in the enthalpy of binding (hHint1 [1]; compared with compound 4): ~2 kcal/mol; fold greater dissociation constant in comparison to 4 (hHint1 [1]; compared with compound 4): 3-4 fold
920 ± 70 | up to 5 mM | -8.24 ± 0.12 | -14.75 ± 0.12 | 6.57 ± 0.17 | Nc1nc2c(ncn2[C@@H]2O[C@H](CNS(=O)(=O)NC(=O)CCc3c[nH]c4ccccc34)C(O)C2O)c(=O)[nH]1 (stereo partly drawn) [Compound 6, 5′-N—[N-(3-Indolepropionic acid)sulfamoyl] Guanosine Triethylammonium Salt] |  |  |  |  | 

Compound | Kd (hHint1 [1]) [nM] | stock solutions easily prepared in aqueous buffers [3] | ΔG (hHint1 [1]) [kcal/mol] | ΔH (hHint1 [1]) [kcal/mol] | −TΔS (hHint1 [1]) [kcal/mol] | SNI-induced mechanical hypersensitivity, injection on day 7 following injury (ICR mice [5]) | SNI-induced mechanical hypersensitivity, pretreatment (ICR mice [5]) | morphine potency and efficacy after tolerance development protocol (ICR mice [6]) | ED50, attenuation of morphine's inhibition of NMDA-evoked behavior (ICR mice [7]) [nM] | other results
O=C(CCc1c[nH]c2ccccc12)NS(=O)(=O)OC[C@H]1O[C@@H](n2cnc3c2ncn2ccnc32)[C@@H](O)C1O (stereo partly drawn) [Compound 7, 5′-O—[N-(3-Indolepropionic acid)sulfamoyl]EthenoAdenosine Triethylammonium Salt] |  | ≤ 20 mM |  |  |  | transient reversal that resolved at 4 hours post injection | did not lead to an attenuation of pain behavior | equivalent potency and efficacy compared to the saline pre-treatment | 0.47 | 
